Test results from paper PMC10755728, “Inhibitors of the Elastase LasB for the Treatment of Pseudomonas aeruginosa Lung Infections” (ACS Central Science, 2023).
Where two headings read alike, the source gives them in different places.

Columns and labels:
[1] = test system: HEK293; details: human, 48 h, 100 µM
Description: (§1) Culturing of HepG2, A549 and HEK293 cells. The human hepatocellular carcinoma cell line HepG2, the lung adenocarcinoma cell line A549 and Human Embryonic (HEK) 293 cells were cultured in Dulbecco's Modified Eagle Medium (DMEM), containing 10% Fetal Bovine Serum
(§2) (FBS) and 1% penicillin-streptomycin mixture. Cells were maintained according to standard cell
(§3) Cytotoxicity assay. An MTT-based assay was employed to evaluate the viability of HepG2,
(§4) HEK293 and A549 cells after challenge with selected LasB inhibitors and performed as described

[2] = molecular target: T1, HDAC-8 (Homo sapiens, UniProt Q9BY41); test: HDAC-8 inhibitor screening kit; assay type: biochemical
T1 construct: purchased Sigma-Aldrich (Saint Louis, MO)
T1 sequence (Q9BY41 1-377): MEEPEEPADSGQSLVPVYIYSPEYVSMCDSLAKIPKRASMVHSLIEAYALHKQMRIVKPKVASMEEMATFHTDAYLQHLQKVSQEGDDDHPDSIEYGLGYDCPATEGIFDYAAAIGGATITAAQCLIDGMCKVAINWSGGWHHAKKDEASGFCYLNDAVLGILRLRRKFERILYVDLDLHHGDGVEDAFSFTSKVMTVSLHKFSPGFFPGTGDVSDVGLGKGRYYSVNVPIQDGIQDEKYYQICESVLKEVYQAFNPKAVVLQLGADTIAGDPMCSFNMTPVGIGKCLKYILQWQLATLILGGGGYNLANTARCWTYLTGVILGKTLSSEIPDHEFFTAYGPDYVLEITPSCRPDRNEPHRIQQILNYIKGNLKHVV

[3] = Lipophilicity determination (LogD7.4, HPLC-MS); assay type: physicochemical; details: for chromatographic logD: pH 7.4, pH 7.4, chromatographic
Description: Lipophilicity determination. LogD7.4 was analyzed using an HPLC−MS based method.50 The retention time of 12 compounds with known LogD7.4 was determined and plotted toward their LogD7.4. Linear regression was used to determine the LogD7.4 of unknown compounds. Analysis was performed using a Dionex Ultimate 3000 HPLC system coupled to a TSQ Quantum Access MAX (Thermo Fisher, Dreieich, Germany) with the following conditions: EC150/2 NUCLEODUR C18 Pyramid column, 5 μM (Macherey Nagel, Düren, Germany); eluent A: 50 mM NH4OAc pH 7.4, eluent B: acetonitrile, and flow: 0.6 mL/min.

[4] = molecular target: T2, HDAC-3 (Homo sapiens, UniProt O15379); test: HDAC-3 inhibitor screening kit; assay type: biochemical
T2 construct: purchased Sigma-Aldrich (Saint Louis, MO)
T2 sequence (O15379 whole entry): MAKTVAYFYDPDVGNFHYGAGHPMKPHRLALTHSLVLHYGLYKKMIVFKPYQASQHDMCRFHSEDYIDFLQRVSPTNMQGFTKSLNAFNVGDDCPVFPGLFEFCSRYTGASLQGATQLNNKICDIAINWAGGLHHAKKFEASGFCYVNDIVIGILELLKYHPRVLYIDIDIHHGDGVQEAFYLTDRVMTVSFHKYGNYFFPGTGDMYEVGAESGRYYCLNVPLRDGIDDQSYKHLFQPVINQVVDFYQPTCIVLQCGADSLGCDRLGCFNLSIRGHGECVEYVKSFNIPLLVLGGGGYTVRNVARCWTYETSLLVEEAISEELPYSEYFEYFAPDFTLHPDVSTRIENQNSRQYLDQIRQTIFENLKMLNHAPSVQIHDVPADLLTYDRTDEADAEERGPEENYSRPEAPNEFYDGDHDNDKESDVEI
T2 sequence (Q9Y618 395-489 partner limits assumed): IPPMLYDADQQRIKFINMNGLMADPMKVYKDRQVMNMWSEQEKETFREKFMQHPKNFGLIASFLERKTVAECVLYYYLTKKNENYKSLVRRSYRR

[5] = molecular target: T3, MMP-3 (Homo sapiens, UniProt P08254); test: MMP-3 inhibition assay; assay type: biochemical; details: 100 μM; read-out: % inhibition MMP-3
T3 construct: purchased AnaSpec (Fremont, CA, USA)
T3 sequence (P08254 100-477): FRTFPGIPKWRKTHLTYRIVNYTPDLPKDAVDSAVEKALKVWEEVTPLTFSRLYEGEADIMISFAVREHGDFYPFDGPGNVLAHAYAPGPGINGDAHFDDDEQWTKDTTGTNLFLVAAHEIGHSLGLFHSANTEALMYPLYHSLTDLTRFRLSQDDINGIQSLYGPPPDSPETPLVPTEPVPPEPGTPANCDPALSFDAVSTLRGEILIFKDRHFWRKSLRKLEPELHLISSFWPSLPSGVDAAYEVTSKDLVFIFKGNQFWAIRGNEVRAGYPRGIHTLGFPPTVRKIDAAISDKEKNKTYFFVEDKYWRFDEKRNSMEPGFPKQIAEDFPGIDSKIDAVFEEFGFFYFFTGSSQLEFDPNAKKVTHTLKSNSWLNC

[6] = mouse, in vivo
[7] = test system: HepG2; details: human, 48 h, 100 µM
Description: as §1, §2, §3, §4

[8] = molecular target: T4, MMP-2 (Homo sapiens, UniProt P08253); test: MMP-2 inhibition assay; assay type: biochemical; details: 100 μM; read-out: % inhibition MMP-2
T4 construct: purchased AnaSpec (Fremont, CA, USA)
T4 sequence (P08253 110-660): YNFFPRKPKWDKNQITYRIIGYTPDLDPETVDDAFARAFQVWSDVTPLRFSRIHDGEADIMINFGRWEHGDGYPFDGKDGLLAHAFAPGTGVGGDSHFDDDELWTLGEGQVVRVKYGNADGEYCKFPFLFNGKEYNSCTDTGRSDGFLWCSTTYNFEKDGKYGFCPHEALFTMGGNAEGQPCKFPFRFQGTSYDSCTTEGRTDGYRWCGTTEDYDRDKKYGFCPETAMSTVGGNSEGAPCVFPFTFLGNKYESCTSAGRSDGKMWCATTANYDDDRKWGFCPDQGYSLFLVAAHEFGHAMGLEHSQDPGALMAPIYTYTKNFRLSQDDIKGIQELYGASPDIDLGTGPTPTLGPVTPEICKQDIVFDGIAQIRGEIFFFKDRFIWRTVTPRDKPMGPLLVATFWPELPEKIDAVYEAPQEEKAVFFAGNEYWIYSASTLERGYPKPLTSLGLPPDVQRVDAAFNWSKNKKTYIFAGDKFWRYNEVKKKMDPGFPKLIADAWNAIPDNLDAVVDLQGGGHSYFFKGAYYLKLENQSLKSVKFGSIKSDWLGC

[9] = molecular target: T5, COX-1 (Ovis aries, UniProt P05979); test: Fluorometric COX-1 inhibitor assay; assay type: biochemical, human
T5 construct: purchased Abcam (Cambridge, UK)
T5 sequence (P05979 25-600): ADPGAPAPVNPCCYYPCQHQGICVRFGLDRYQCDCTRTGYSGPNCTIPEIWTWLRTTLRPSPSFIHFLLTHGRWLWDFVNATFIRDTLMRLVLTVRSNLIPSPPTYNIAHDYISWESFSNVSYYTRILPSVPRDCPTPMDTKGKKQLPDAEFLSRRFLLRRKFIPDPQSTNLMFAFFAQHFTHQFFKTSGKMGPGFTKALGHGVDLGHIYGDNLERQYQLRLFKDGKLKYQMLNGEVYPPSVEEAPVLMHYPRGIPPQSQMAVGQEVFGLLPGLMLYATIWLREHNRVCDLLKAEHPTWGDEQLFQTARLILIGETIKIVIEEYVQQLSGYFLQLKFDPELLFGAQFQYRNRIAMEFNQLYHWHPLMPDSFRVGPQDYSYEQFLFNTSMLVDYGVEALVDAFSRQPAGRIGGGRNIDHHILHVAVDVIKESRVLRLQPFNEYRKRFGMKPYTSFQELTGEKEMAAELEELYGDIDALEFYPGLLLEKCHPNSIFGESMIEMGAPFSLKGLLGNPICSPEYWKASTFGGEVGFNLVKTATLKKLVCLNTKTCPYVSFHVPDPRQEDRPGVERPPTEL

[10] = Plasma stability, mouse; assay type: in vitro ADME; details: for half-life at 1 μM: mouse plasma, read-out: Plasma T1/2 Mouse; for half-life: C57BL6, mouse, pooled plasma, species profiling, read-out: Plasma T1/2 Mouse (C57BL6)
[11] = Calu-3 permeability; assay type: in vitro ADME; details: human
[12] = molecular target: T6, LasB (Pseudomonas aeruginosa, UniProt Q02RJ6); test: biochemical; assay type: biochemical
T6 construct: made in house
T6 sequence (Q02RJ6 198-498): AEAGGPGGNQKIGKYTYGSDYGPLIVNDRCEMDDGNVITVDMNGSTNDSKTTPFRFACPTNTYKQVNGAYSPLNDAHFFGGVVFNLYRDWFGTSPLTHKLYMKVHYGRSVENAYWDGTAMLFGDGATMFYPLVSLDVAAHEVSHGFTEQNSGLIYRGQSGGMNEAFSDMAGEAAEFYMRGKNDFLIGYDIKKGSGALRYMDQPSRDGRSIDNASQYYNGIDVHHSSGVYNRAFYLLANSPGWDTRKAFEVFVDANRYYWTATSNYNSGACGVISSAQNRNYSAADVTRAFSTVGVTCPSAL

[13] = Metabolic stability in mouse liver S9 fraction; assay type: in vitro ADME
[14] = molecular target: T7, MMP-1 (Homo sapiens, UniProt P03956); test: MMP-1 inhibition assay; assay type: biochemical; details: 100 μM; read-out: % inhibition MMP-1
T7 construct: purchased AnaSpec (Fremont, CA, USA)
T7 sequence (P03956 100-469): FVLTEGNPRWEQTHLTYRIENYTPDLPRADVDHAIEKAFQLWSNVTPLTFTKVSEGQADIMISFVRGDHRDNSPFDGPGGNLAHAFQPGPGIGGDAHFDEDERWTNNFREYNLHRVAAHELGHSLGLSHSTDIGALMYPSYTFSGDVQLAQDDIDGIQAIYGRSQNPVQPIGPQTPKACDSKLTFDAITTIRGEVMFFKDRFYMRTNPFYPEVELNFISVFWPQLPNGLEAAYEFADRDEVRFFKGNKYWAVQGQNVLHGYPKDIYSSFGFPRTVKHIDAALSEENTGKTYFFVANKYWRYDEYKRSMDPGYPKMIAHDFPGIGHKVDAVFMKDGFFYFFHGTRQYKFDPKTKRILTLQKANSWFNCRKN

[15] = Metabolic stability in human liver S9 fraction; assay type: in vitro ADME
[16] = Microsomal stability, mouse liver microsomes; assay type: in vitro ADME; details: C57BL6, mouse, pooled liver microsomes
[17] = Microsomal stability, minipig liver microsomes; assay type: in vitro ADME; details: Göttingen, pooled liver microsomes
[18] = test system: Eurofins SafetyScreen44 panel; test: Off-target SafetyScreen44 panel; details: 10 μM
Source text: Then, we assessed potential additional safety liabilities of 4a and 4b using the Eurofins SafetyScreen44 panel to identify the most important off-target interactions at an early stage. […] Furthermore, to gain a deeper insight into the potential clinical applicability, we investigated the toxicity of compounds in vivo on zebrafish embryos.
Off-Target Safety Screen44TM Panel.
Eurofins Cerep, according to their guidelines.
their Standard Operating Procedures.
Zebrafish embryo toxicity.

[19] = Plasma stability, rat; assay type: in vitro ADME; details: Wistar, pooled plasma, species profiling, read-out: Plasma T1/2 Rat (Wistar)
[20] = test system: P. aeruginosa PA14; test: Bacterial growth inhibition assay; assay type: cell-based, Pseudomonas aeruginosa; details: Pseudomonas aeruginosa, PA14; 100 µM compound concentration; read-out: Percent (%) growth inhibition of P. aeruginosa PA14
Description: Bacterial growth inhibition assay. Assays regarding the determination of the MIC were
performed as described recently for P. aeruginosa PA14.58

[21] = Plasma stability, minipig; assay type: in vitro ADME; details: Göttingen, pooled plasma, species profiling, read-out: Plasma T1/2 Minipig (Göttingen)
[22] = Microsomal stability, rat liver microsomes; assay type: in vitro ADME; details: Wistar, pooled liver microsomes
[23] = test system: A549 cells treated with P. aeruginosa PAO1 and PA14 supernatants; test: A549 cells challenged with P. aeruginosa culture supernatants; details: PAO1 or PA14 csn
Description: Cells were maintained according to standard cell
PA14 csn production. The csn of wt PA14 and ΔlasB PA14 was produced as we previously
Validation of the effect of LasB inhibitors on A549 cells in vitro. The experiment was performed
as described previously.32 The Picrosirius red assay was performed by washing the csn-challenged
cells (± inhibitor) 3x with PBS followed by an incubation with Bouin solution (Sigma) at RT for
20 min. The cells were incubated with 0.1% Picrosirius red dye (ab150681) at RT for 2 h. Then,
they were washed once with 0.01 N HCl, and the matrix was dissolved in 0.01 N NaOH. The
absorption was measured at 570 nm using a PHERAstar plate reader (BMG Labtech). By dividing
the absorbance of each sample by the absorbance of the healthy sample, the relative collagen
quantity was determined. For each condition, the experiment was performed three times. To
determine the rescue of A549 cells treated with 5% wt PA14 csn using our compounds, the LasB
inhibitors were used at 2, 0.5, 0.1 and 0.05 µM. The compounds were incubated in F12K medium,
Cell detachment was then evaluated, and a Trypan Blue cell
cells/well were seeded into a flat bottom 96-well plate (Corning™ Costar™) and incubated at 37
were tested against 10% (v/v) P. aeruginosa PAO1 csn diluted in DMEM starting from 10 µM
and 20 µM, respectively. Compound was initially dissolved in DMSO, and a low final assay
concentration of 0.5% (v/v) was applied to minimize the proteolytic effect of DMSO on the
bacterial culture supernatant. In addition, cells were challenged with 10% (v/v) of ΔlasB PAO1 to

[24] = molecular target: T8, TACE (Homo sapiens, UniProt P78536); test: TACE inhibitor screening kit; assay type: biochemical; details: 100 μM; read-out: % inhibition TACE
T8 construct: purchased Sigma-Aldrich (Saint Louis, MO)
T8 sequence (P78536 215-824): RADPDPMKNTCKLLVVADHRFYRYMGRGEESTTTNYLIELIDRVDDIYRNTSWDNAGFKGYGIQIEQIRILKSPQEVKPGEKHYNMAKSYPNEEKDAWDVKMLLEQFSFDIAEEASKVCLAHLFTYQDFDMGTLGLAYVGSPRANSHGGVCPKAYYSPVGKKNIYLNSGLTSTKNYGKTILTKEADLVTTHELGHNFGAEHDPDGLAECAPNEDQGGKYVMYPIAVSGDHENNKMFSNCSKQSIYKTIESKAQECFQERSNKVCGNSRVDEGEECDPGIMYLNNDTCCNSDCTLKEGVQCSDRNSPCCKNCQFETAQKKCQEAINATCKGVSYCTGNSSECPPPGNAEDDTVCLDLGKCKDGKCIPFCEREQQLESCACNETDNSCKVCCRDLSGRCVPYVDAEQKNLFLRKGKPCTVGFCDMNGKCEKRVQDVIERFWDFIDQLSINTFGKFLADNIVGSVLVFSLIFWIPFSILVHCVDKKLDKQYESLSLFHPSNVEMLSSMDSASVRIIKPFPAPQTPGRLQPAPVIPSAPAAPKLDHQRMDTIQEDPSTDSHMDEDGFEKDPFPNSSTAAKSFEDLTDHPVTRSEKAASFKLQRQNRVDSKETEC

[25] = molecular target: ColH-PD (Hathewaya histolytica, UniProt Q46085); test: biochemical; assay type: biochemical, Clostridium histolyticum; details: read-out: % inhibition ColH-PD @1 µM
Sequence of ColH-PD (Q46085 331-721 limits assumed): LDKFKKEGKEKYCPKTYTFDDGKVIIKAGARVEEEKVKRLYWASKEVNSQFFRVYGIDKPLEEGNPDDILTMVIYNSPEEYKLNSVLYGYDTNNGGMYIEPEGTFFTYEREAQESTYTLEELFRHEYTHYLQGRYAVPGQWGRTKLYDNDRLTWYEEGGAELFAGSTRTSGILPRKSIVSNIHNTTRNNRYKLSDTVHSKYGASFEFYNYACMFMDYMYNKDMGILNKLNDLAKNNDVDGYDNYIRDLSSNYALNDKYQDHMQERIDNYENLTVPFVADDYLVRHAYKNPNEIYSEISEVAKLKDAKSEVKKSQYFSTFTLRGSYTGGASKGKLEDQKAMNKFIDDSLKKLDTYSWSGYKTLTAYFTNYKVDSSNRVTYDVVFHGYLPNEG

[26] = test system: zebrafish embryos; test: Zebrafish embryo toxicity
Description: Zebrafish embryo toxicity. The experiment was performed according to a procedure described
in the literature55 with minor modifications using zebrafish embryos of the AB wild-type line at 1
day post fertilization (dpf).

[27] = test system: 3D lung organoids; test: Lung organoid assay; assay type: cell-based, human
[28] = test system: LasB; assay type: in vivo, mouse; details: compared to the vehicle group; 4b 10 mg/kg TID, levofloxacin 25 mg/kg
[29] = test system: P. aeruginosa DSM-1117; test: Neutropenic lung infection model (PD study); details: neutropenic mice, 24 h; 4b 10 mg/kg TID nebulized, levofloxacin 25 mg/kg IP
Description: For the therapeutic neutropenic
pneumonia model, female CD-1 mice, 8-weeks-old, (Charles River, Germany) were rendered
neutropenic by administration of 150 mg/kg and 100 mg/kg cyclophosphamide i.p. on day –4 and
–1, respectively. The inoculum was prepared as follows: on day -1 the P. aeruginosa strain DSM-
single colony was inoculated into LB medium (diluted 1:6 in water) containing 0.01% mucin and
incubated at 120 rpm and 37 °C.
washed twice in 0.9 % NaCl-solution. Then they were adjusted to an OD of 10. For infection with
P. aeruginosa an inoculum of 1.2x10^9 cfu/mL was used. At d0 mice were infected by nebulization
using an Aeroneb® nebulizer (Kent Scientific) of 20 µL 1.2x10^9 CFU/ml P. aeruginosa DSM-
To control bacterial burden after nebulization, two animals were used as inoculum control
group. The following groups were used: (1) vehicle control group, (2) levofloxacin group wit h
mg/kg inhaled TID (t= 2, 6 and 10 h) combined with levofloxacin at 25 mg/kg IP QD (t= 2 h p.i.).
After isolation of blood, lung was
removed, weighed, and homogenized in 3 mL 0.9% NaCl. For de termination of CFUs, suspensions
of homogenized organs were serially diluted, plated on agar plates and incubated overnight at 37
°C. CFUs were determined by manual counting.

[30] = FRET-based assay, read-out: LasB IC50

With `Cc1ccc(NC(=O)C(CC(C)C)C(=O)NO)cc1` (stereo not shown) [Compound 3g] the “% growth inhibition HEK293” value [1] was 12 ± 6%, the inhibition at 100 µM [2] was < 10% and the logD7.4 ([3]; pH 7.4, chromatographic) was 1.81. For the same compound, the chromatographic logD [3] was > 1.8, the inhibition at 100 µM [4] was < 10% and the inhibition at 100 µM [5] was 16 ± 7%. The “detection in ELF and lung tissue” value [6] was “not detected”, the “% growth inhibition HepG2” value [7] was 26 ± 11% and the inhibition at 100 µM [8] was 26 ± 2%. The inhibition at 100 µM [9] was < 10%, the half-life at 1 μM [10] was > 2.5 h and the Papp at 300 min [11] was 9.8 ± 2.6 ×10⁻⁶ cm/s. For the same compound, the “fold more potent compared to the best phosphonate inhibitor” value [12] was 2 fold, the “fold improvement of LasB activity compared to thiol hit 1” value ([12]; vs 1) was 30 fold and the microsomal CLint at 1 μM [13] was 64 ± 10 µL/min/mg. For the same compound, the inhibition at 100 µM [14] was 29 ± 3% and the microsomal CLint at 1 μM [15] was < 5.8 µL/min/mg.
For `Cc1ccc(NC(=O)C(CC(C)C)P(=O)(O)O)cc1` (stereo not shown) [Compound 4a], the microsomal CLint [16] was < 11.6 µL/min/mg, the inhibition at 100 µM [2] was < 10% and the microsomal CLint [17] was < 11.6 µL/min/mg. The inhibition at 100 µM [4] was < 10%, the “inhibition of SafetyScreen44 targets” value [18] was “no significant inhibition” and the half-life [19] was > 4 h. For the same compound, the inhibition at 100 µM [20] was < 10%, the inhibition at 100 µM [9] was < 10% and the half-life [10] was > 4 h. The half-life at 1 μM [10] was > 2.5 h, the half-life [21] was > 4 h and the IC50 [12, 30] was 51.2 ± 6.7 nM. The IC50 ([12]; LasB IC50 in presence of 1% pulmonary surfactant, 1% pulmonary surfactant) was 123 ± 56 nM, the microsomal CLint [22] was < 11.6 µL/min/mg and the “LasB-related cytotoxicity in csn-treated A549 cells” value [23] was “dose-dependent reduction of LasB-related cytotoxicity”. The microsomal CLint at 1 μM [13] was < 5.8 µL/min/mg, the inhibition at 100 µM [24] was < 10% and the inhibition at 1 µM [25] was < 10%. The microsomal CLint at 1 μM [15] was < 5.8 µL/min/mg, the Survival rate ([26]; 12.5 µM) was 100% and the Screening observations ([26]; 12.5 µM, 3 dpf) was 1 edema. For the same compound, the Screening observations ([26]; 12.5 µM, 4 dpf) was 1 edema, the Screening observations ([26]; 12.5 µM, 5 dpf) was 1 nsb, 1 edema and the Survival rate ([26]; 25 µM) was 100%. The Survival rate ([26]; 50 µM) was 100%, the Screening observations ([26]; 50 µM, 3 dpf) was 1 edema and the Screening observations ([26]; 50 µM, 4 dpf) was 1 edema. For the same compound, the Screening observations ([26]; 50 µM, 5 dpf) was 1 nsb, 1 edema, the Survival rate ([26]; 100 μM) was 100% and the Screening observations ([26]; 100 µM, 5 dpf) was 3 nsb. The “maximum tolerated concentration (MTC)” value ([26]; zebrafish embryos) was ≥ 100 µM, the “viability of lung organoids challenged with 5% PA14 csn” value ([27]; 5% PA14 csn, 48 h, MTT) was “improved in a dose-dependent manner” and the “toxic effects on nontreated lung organoids” value ([27]; concentrations tested up to 100 μM) was “did not have significant toxic effects”.
For `CC(C)CC(C(=O)Nc1ccc(F)cc1)P(=O)(O)O` (stereo not shown) [Compound 4h], the microsomal CLint [16] was < 11.6 µL/min/mg, the chromatographic logD [3] was -0.79 and the microsomal CLint [17] was < 11.6 µL/min/mg. The half-life [19] was > 4 h, the half-life [10] was > 4 h and the half-life at 1 μM [10] was > 2.5 h. The half-life [21] was > 4 h, the IC50 [12, 30] was 92.7 ± 21.6 nM and the “fold less active than chlorine and bromine compounds” value ([12]; vs 4i and 4j) was 2 fold. The microsomal CLint [22] was < 11.6 µL/min/mg, the microsomal CLint at 1 μM [13] was < 5.8 µL/min/mg and the microsomal CLint at 1 μM [15] was < 5.8 µL/min/mg.
With `C[C@H]1COc2c(N3CCN(C)CC3)c(F)cc3c(=O)c(C(=O)O)cn1c23` [levofloxacin, reference compound] the “LasB protein levels in blood” value [28] was “clear reduction” and the “effect on bacterial burden (CFU) in lung” value [29] was “reduced the bacterial burden back to stasis”.
